Laboratory results reported in EP2987533B1, “7-substituted piperazin-1-yl fluoroquinolone compounds, their use in the treatment of cancer, pharmaceutical compositions and a method for preparation” (priority 2014, dated 2016).

Columns and labels:
SK-MEL-28 = assay: NCI five-dose SRB growth assay; assay type: cell-based; conditions: Homo sapiens; SK-MEL-28 (Melanoma), 48 h
UACC-62 = assay: NCI one-dose SRB growth assay; assay type: cell-based; conditions: Homo sapiens; UACC-62 (Melanoma), 10^-5 M, 48 h; read-out: % Growth Inhibition (GI %)
Method in brief: (§1)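 Growth percentage versus untreated controls was derived from SRB protein-dye absorbance after cells were incubated 48 h with test compound at a single 10^-5M dose.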

ACHN = assay: NCI one-dose SRB growth assay; assay type: cell-based; conditions: Homo sapiens; ACHN (Renal Cancer), 10^-5 M, 48 h; read-out: % Growth Inhibition (GI %)
Method in brief: as §1

NCI-H23 = assay: NCI one-dose SRB growth assay; assay type: cell-based; conditions: Homo sapiens; NCI-H23 (Non-Small Cell Lung Cancer), 10^-5 M, 48 h; read-out: % Growth Inhibition (GI %)
Method in brief: as §1

SF-295 = assay: NCI one-dose SRB growth assay; assay type: cell-based; conditions: Homo sapiens; SF-295 (CNS Cancer), 10^-5 M, 48 h; read-out: % Growth Inhibition (GI %)
Method in brief: as §1

SK-MEL-2 = assay: NCI one-dose SRB growth assay; assay type: cell-based; conditions: Homo sapiens; SK-MEL-2 (Melanoma), 10^-5 M, 48 h; read-out: % Growth Inhibition (GI %)
BT-549 = assay: NCI one-dose SRB growth assay; assay type: cell-based; conditions: Homo sapiens; BT-549 (Breast Cancer), 10^-5 M, 48 h; read-out: % Growth Inhibition (GI %)
Method in brief: as §1

TK-10 = assay: NCI one-dose SRB growth assay; assay type: cell-based; conditions: Homo sapiens; TK-10 (Renal Cancer), 10^-5 M, 48 h; read-out: % Growth Inhibition (GI %)
RXF 393 [1] = assay: NCI one-dose SRB growth assay; assay type: cell-based; conditions: Homo sapiens; RXF 393 (Renal Cancer), 10^-5 M, 48 h; read-out: % Growth Inhibition (GI %)
Method in brief: as §1

SK-OV-3 = assay: NCI one-dose SRB growth assay; assay type: cell-based; conditions: Homo sapiens; SK-OV-3 (Ovarian Cancer), 10^-5 M, 48 h; read-out: % Growth Inhibition (GI %)
Method in brief: as §1

NCI-H522 = assay: NCI one-dose SRB growth assay; assay type: cell-based; conditions: Homo sapiens; NCI-H522 (Non-Small Cell Lung Cancer), 10^-5 M, 48 h; read-out: % Growth Inhibition (GI %)
Method in brief: as §1

SNB-19 = assay: NCI one-dose SRB growth assay; assay type: cell-based; conditions: Homo sapiens; SNB-19 (CNS Cancer), 10^-5 M, 48 h; read-out: % Growth Inhibition (GI %)
Method in brief: as §1

MALME-3M = assay: NCI one-dose SRB growth assay; assay type: cell-based; conditions: Homo sapiens; MALME-3M (Melanoma), 10^-5 M, 48 h; read-out: % Growth Inhibition (GI %)
Method in brief: as §1

NCI-H226 [2] = assay: NCI one-dose SRB growth assay; assay type: cell-based; conditions: Homo sapiens; NCI-H226 (Non-Small Cell Lung Cancer), 10^-5 M, 48 h; read-out: % Growth Inhibition (GI %)
Method in brief: as §1

LOX IMVI = assay: NCI one-dose SRB growth assay; assay type: cell-based; conditions: Homo sapiens; LOX IMVI (Melanoma), 10^-5 M, 48 h; read-out: % Growth Inhibition (GI %)
Method in brief: as §1

NCI/ADR-RES = assay: NCI five-dose SRB growth assay; assay type: cell-based; conditions: Homo sapiens; NCI/ADR-RES (Ovarian Cancer), 48 h
HOP-92 = assay: NCI five-dose SRB growth assay; assay type: cell-based; conditions: Homo sapiens; HOP-92 (Non-Small Cell Lung Cancer), 48 h
prostate cancer = assay: NCI five-dose SRB assay, subpanel average; conditions: 48 h; for GI50 / CC50: Homo sapiens; for GI50: read-out: GI50 (median growth inhibitory); for CC50: read-out: LC50 (median lethal); for TGI (total growth inhibitory): average over prostate cancer subpanel, five concentrations
ovarian cancer = assay: NCI five-dose SRB assay, subpanel average; conditions: 48 h; for GI50 / CC50: Homo sapiens; for GI50: read-out: GI50 (median growth inhibitory); for CC50: read-out: LC50 (median lethal); for TGI (total growth inhibitory): average over ovarian cancer subpanel, five concentrations
NCI-H226 [3] = assay: NCI five-dose SRB growth assay; assay type: cell-based; conditions: Homo sapiens; NCI-H226 (Non-Small Cell Lung Cancer), 48 h
HT29 = assay: NCI five-dose SRB growth assay; assay type: cell-based; conditions: Homo sapiens, HT-29; HT29 (Colon Cancer), 48 h
MOLT-4 = assay: NCI five-dose SRB growth assay; assay type: cell-based; conditions: Homo sapiens; MOLT-4 (Leukemia), 48 h
leukemia = assay: NCI five-dose SRB assay, subpanel average; conditions: 48 h; for GI50 / CC50: Homo sapiens; for GI50: read-out: GI50 (median growth inhibitory); for CC50: read-out: LC50 (median lethal); for TGI (total growth inhibitory): average over leukemia subpanel, five concentrations
RXF 393 [4] = assay: NCI five-dose SRB growth assay; assay type: cell-based; conditions: Homo sapiens; RXF 393 (Renal Cancer), 48 h
OVCAR-4 = assay: NCI five-dose SRB growth assay; assay type: cell-based; conditions: Homo sapiens; OVCAR-4 (Ovarian Cancer), 48 h
CNS cancer = assay: NCI five-dose SRB assay, subpanel average; conditions: 48 h; for GI50 / CC50: Homo sapiens; for GI50: read-out: GI50 (median growth inhibitory); for CC50: read-out: LC50 (median lethal); for TGI (total growth inhibitory): average over CNS cancer subpanel, five concentrations
SF-539 = assay: NCI five-dose SRB growth assay; assay type: cell-based; conditions: Homo sapiens; SF-539 (CNS Cancer), 48 h
HS 578T = assay: NCI five-dose SRB growth assay; assay type: cell-based; conditions: Homo sapiens; HS 578T (Breast Cancer), 48 h
KM12 = assay: NCI five-dose SRB growth assay; assay type: cell-based; conditions: Homo sapiens; KM12 (Colon Cancer), 48 h

## CCn1cc(C(=O)O)c(=O)c2cc(F)c(N3CCN(S(=O)(=O)c4ccc(Cl)cc4Cl)CC3)cc21 [Compound 2a]
SK-MEL-28
  GI50: 3.21 µM
UACC-62
  inhibition at 10 µM: 83.8%
ACHN
  inhibition at 10 µM: > 100%
NCI-H23
  inhibition at 10 µM: > 100%
SF-295
  inhibition at 10 µM: > 100%
SK-MEL-2
  inhibition at 10 µM: > 100%
BT-549
  inhibition at 10 µM: > 100%
TK-10
  inhibition at 10 µM: 87.6%
RXF 393 [1]
  inhibition at 10 µM: 72.1%
SK-OV-3
  inhibition at 10 µM: 98.3%
NCI-H522
  inhibition at 10 µM: > 100%
SNB-19
  inhibition at 10 µM: 73.8%
MALME-3M
  inhibition at 10 µM: > 100%
NCI-H226 [2]
  inhibition at 10 µM: 86.9%
LOX IMVI
  inhibition at 10 µM: > 100%
NCI/ADR-RES
  GI50: 3.28 µM
HOP-92
  GI50: 1.22 µM
Prostate cancer
  GI50: 2.62 µM
  CC50: > 100 µM
  TGI (total growth inhibitory): 8.72 µM
Ovarian cancer
  GI50: 2.96 µM
  CC50: 76.7 µM
  TGI (total growth inhibitory): 39.54 µM
NCI-H226 [3]
  GI50: 2.6 µM
HT29
  GI50: 3.63 µM
MOLT-4
  GI50: 3.55 µM
leukemia
  GI50: 3.07 µM
  CC50: > 100 µM
  TGI (total growth inhibitory): 62.54 µM
RXF 393 [4]
  GI50: 2.08 µM
OVCAR-4
  GI50: 2.58 µM
CNS cancer
  GI50: 3.03 µM
  CC50: 77.2 µM
  TGI (total growth inhibitory): 34.84 µM
SF-539
  GI50: 1.92 µM
HS 578T
  GI50: 2.53 µM
KM12
  GI50: 3.42 µM

## CCn1cc(C(=O)O)c(=O)c2cc(F)c(N3CCN(S(=O)(=O)c4cccc5ccccc45)CC3)cc21 [Compound 7a]
SK-MEL-28
  GI50: 6.09 µM
UACC-62
  inhibition at 10 µM: 68.8%
ACHN
  inhibition at 10 µM: > 100%
NCI-H23
  inhibition at 10 µM: 99.9%
SF-295
  inhibition at 10 µM: 92.3%
SK-MEL-2
  inhibition at 10 µM: 91.2%
BT-549
  inhibition at 10 µM: > 100%
TK-10
  inhibition at 10 µM: 74%
RXF 393 [1]
  inhibition at 10 µM: 71%
SK-OV-3
  inhibition at 10 µM: 84.4%
NCI-H522
  inhibition at 10 µM: > 100%
SNB-19
  inhibition at 10 µM: 71.2%
MALME-3M
  inhibition at 10 µM: > 100%
NCI-H226 [2]
  inhibition at 10 µM: 78.1%
LOX IMVI
  inhibition at 10 µM: > 100%
NCI/ADR-RES
  GI50: 3.2 µM
HOP-92
  GI50: 1.25 µM
Prostate cancer
  GI50: 3.71 µM
  CC50: > 100 µM
  TGI (total growth inhibitory): c (Compounds showed values > 100µM)
Ovarian cancer
  GI50: 3.07 µM
  CC50: > 100 µM
  TGI (total growth inhibitory): 62.35 µM
NCI-H226 [3]
  GI50: 3.71 µM
HT29
  GI50: 3.95 µM
MOLT-4
  GI50: 4.46 µM
leukemia
  GI50: 3.48 µM
  CC50: > 100 µM
  TGI (total growth inhibitory): 63.22 µM
RXF 393 [4]
  GI50: 3.19 µM
OVCAR-4
  GI50: 2.6 µM
CNS cancer
  GI50: 3.09 µM
  CC50: > 100 µM
  TGI (total growth inhibitory): 63.40 µM
SF-539
  GI50: 2.43 µM
HS 578T
  GI50: 2.68 µM
KM12
  GI50: 2.96 µM
